For series [1], the system named is TNF gene transcript. The experiment in a line: TNF mRNA in LPS-stimulated RAW 264.7 cells (RNase protection assay). The format is cell-based, murine. How it is done:
Cell Culture. BALB/c murine macrophage-like RAW 264.7 cells obtained from the American Type Culture Collection (ATCC Number TIB-71, ATCC, Rockville, Mass.) (61), were cultured in RPMI 1640 (Life Technologies, Grand Island, N.Y.) supplemented with 10% heat inactivated fetal bovine serum (Gemini, Calabasas, Calif.), 2 mM glutamine (Cat. # 25030-149, Gibco BRL, Rockville, Mass.) and antibiotic-antimycotic mix (Cat. # 15240-062, Gibco BRL, Rockville, Mass.) in a humidified incubator with 5% CO2. Cells were mechanically removed and resuspended in serum-free Opti-MEM I medium (Life Technology, Grand Island, N.Y.) to perform experiments at 75% confluence.
Total RNA extraction and RNase protection assay. […] The levels of TNF and cyclophilin mRNA in RAW cells were measured using an RNase protection assay kit from PharMingen in accordance with the manufacturer's instructions (San Diego, Calif.). […] Molecular weight markers were prepared using pBR-322 plasmid DNA digested with MSP I (New England Bio Labs, Beverly, Mass.) and Klenow end-labeled (Strategene, La Jolla, Calif.) with ^α-32P-dCTP (800 Ci/mmol, Amersham); mRNA levels were measured with an Instantlmager (Packard Instrument Co., Meriden, Conn.).
To determine the effect of ethyl pyruvate on TNF synthesis by macrophages, murine macrophage-like RAW 264.7 cells were stimulated with endotoxin, and TNF measured in the conditioned media. […]

Series [2] has as its system lethal sepsis caused by peritonitis (cecal perforation). The experiment in a line: Cecal ligation and puncture (CLP) peritonitis/sepsis: survival. The format is in vivo, Balb/C mice. How it is done: Animal Experiments. Male 6-8 week old Balb/C mice (20-25 g) were purchased from Harlen Sprague-Dawley (Indianapolis, Ind.) and allowed to acclimate for 7 days housed at 25° C. on a 12 h light/dark cycle. Animals were randomly grouped (10 mice per group) and assigned to a specific experiment. All animal experiments were performed in accordance with the National Institutes of Health Guidelines under protocols approved by the Institutional Animal Care and Use Committee of North Shore University Hospital and New York University Medical School.
Cecal ligation and puncture (CLP). Cecal ligation and puncture (CLP) was performed as described by (Wichterman et al., J. Surg. Res. (1980) 29(2):189-201). Briefly, mice were anesthetized with 20 mg/ml xylazine intramuscularly at a dose of […], a midline incision was performed, and the cecum was isolated. A 6-0 prolene suture ligature was placed at a level 5.0 mm from the cecal tip away from the ileocecal valve. The ligated cecal stump was then punctured once with a 22-gauge needle, and stool extruded (1 mm) to ascertain patency of the puncture site. […] Mortality was recorded for up to 1 week after the procedure; survivors were followed for 3 weeks to ensure no late mortalities had occurred. […]

Series [3] has as its system Caco-2 human enterocytes. As to the kind of experiment: Cytomix-induced hyperpermeability of Caco-2 monolayers (FD4 clearance). The format is cell-based. Conditions: 48 h incubation with cytomix (IFN-γ, IL-1β, TNF-α); both of the highest concentrations; P<0.001. How it is done: To test for the effect of ethyl pyruvate on a stabilizing calcium salt solution (REPS) in a cytokine-induced intestinal epithelial hyperpermeability condition, an in vitro model of intestinal epithelial injury due to inflammation, such as might occur in cases of inflammatory bowel disease (i.e., Crohn's disease or ulcerative colitis) was used.
Exemplary materials and methods include the following, while minor modifications can be made: Caco-2 human enterocytes (10^5 cells/well) were plated on permeable filters in 12-well Transwell bicameral chambers (COSTAR, Corning, N.Y.) and fed biweekly. Permeability studies were carried out using confluent monolayers between 21-28 d after seeding. The permeability probe was FITC-labeled dextran (4400 Da; FD4). A sterile stock solution of FD4 (25 mg/ml) was prepared by dissolving the compound in HEPES-buffered DMEM complete medium (pH 6.8) and passing it through a filter ([…] pore size). For permeability studies, the medium was aspirated from the apical and basolateral sides of the Transwell chambers. FD4 solution (200 μl) was added to the apical compartments. […] (Menconi et al., Am. J. Physiol. (1997) 272:G1007-G1021.) The permeability of monolayers was expressed as a clearance (C), which was calculated as previously described. […]

Read-outs that look alike come from different tables or passages of the source.

Data on one compound can be found in US6943190B2, “Method of using pyruvate and/or its derivatives for the treatment of cytokine-mediated inflammatory conditions” (University of Pittsburgh-of the Commonwealth System of …, priority 2001, dated 2005).

With `CCOC(=O)C(C)=O` [ethyl pyruvate], the “amount of TNF mRNA / TNF transcription” value is “prevents LPS-induced transcription of TNF in an ethyl pyruvate concentration dependent fashion” in series [1] and “significantly reduced the amount of TNF mRNA” in series [1] (listed as Ethyl pyruvate). In addition, the survival in series [2] (40 mg/kg i.p. beginning 24 hours after onset of peritonitis, three weeks of monitoring, vehicle 5/17, P<0.005) is recorded as 14/17. Further, in series [2] (lower ethyl pyruvate doses, beginning 24 hours after onset of peritonitis), the protection against death entry is reported as “failed to confer significant protection against death”. Besides, the “cytomix-induced hyperpermeability of Caco-2 monolayers (FD4 clearance)” value in series [3] is given as “significantly decreased cytomix-induced hyperpermeability”.
